# Measured values reported in patent US9655967B2, “Inhibition of focal adhesion kinase for control of scar tissue formation” (The Board of Trustees of the Leland Stanford Junior …, priority 2011, dated 2017).
# Key:
# [1] = test system: human fibroblasts; experiment: Focal adhesion formation and spreading in human fibroblasts; type: cell-based; conditions: PF573228 treatment
# Description: To substantiate the importance of these findings in human tissues, we examined FAK pathways in vitro in human fibroblasts. Following the application of strain, FAK was activated within five minutes and sustained during the static strain period (FIG. 3a-b). ERK was phosphorylated after ten minutes and its activation was critically dependent on FAK, thus recapitulating the FAK-ERK mechanotransduction axis observed in vivo. Small molecule inhibition of FAK (PF573228) was used to investigate mechanically-regulated fibroblast function during wound repair. […] Additionally, cell motility (FIG. 3c) and contraction/α-SMA expression (FIG. 3d-e) were all decreased with FAK inhibition.
# Fibroblast harvest. We isolated primary dermal mouse fibroblasts after overnight incubation in trypsin (Gibco/Invitrogen, Carlsbad, Calif.) followed by 1 mg mL^−1 Liberase TL (Roche, Indianapolis, Ind.). We obtained human fibroblasts from fresh tissue specimens following IRB-approved protocols at Oregon Health and Sciences University. We incubated specimens overnight in 5 mg mL^−1 dispase (Roche) followed by 0.5 mg mL^−1 collagenase type I (Roche) and 0.2 mg mL^−1 trypsin. […]
# Microscopy and immunohistochemistry. […] We processed images for publication using Adobe Photoshop CS3 (Adobe Systems Incorporated, San Jose, Calif.) and two blinded investigators performed image quantification using ImageJ (NIH, Bethesda, Md.).
# [2] = test system: human fibroblasts; experiment: Scratch migration assay (fibroblast motility); type: cell-based; conditions: FIG. 3c
# Experimental: (§1) Fibroblast harvest. We isolated primary dermal mouse fibroblasts after overnight incubation in trypsin (Gibco/Invitrogen, Carlsbad, Calif.) followed by 1 mg mL^−1 Liberase TL (Roche, Indianapolis, Ind.). We obtained human fibroblasts from fresh tissue specimens following IRB-approved protocols at Oregon Health and Sciences University. We incubated specimens overnight in 5 mg mL^−1 dispase (Roche) followed by 0.5 mg mL^−1 collagenase type I (Roche) and 0.2 mg mL^−1 trypsin. We used human cells from passages four to eight.
# In vitro wound healing. We assessed fibroblast motility using a scratch migration assay, Aarabi, et al. FASEB J 21, 3250-3261 (2007).
# [3] = test system: human fibroblasts; experiment: Fibroblast-populated 3D-collagen lattices (contraction, α-SMA expression); type: cell-based; conditions: FIG. 3d-e
# Experimental: as §1
# Fibroblast-populated collagen lattices. We performed fibroblast contraction studies as previously published, Ehrlich, Methods Mol Med 78, 277-291 (2003).
# Microscopy and immunohistochemistry. We incubated paraformaldehyde-fixed cells with primary antibody (pFAK-Y397 or FAK 1:200, BD Biosciences, San Jose, Calif.) followed by AlexaFluor488-conjugated secondary antibody (Molecular Probes/Invitrogen). We performed cytoskeletal staining with phalloidin-AF488 or Cy3-conjugated antibody against α-SMA (Sigma-Aldrich). We performed H&E, picrosirius red and trichrome staining (Sigma-Aldrich) on paraffin-embedded sections. […] We processed images for publication using Adobe Photoshop CS3 (Adobe Systems Incorporated, San Jose, Calif.) and two blinded investigators performed image quantification using ImageJ (NIH, Bethesda, Md.).
# [4] = test system: cutaneous wounds in the HTS model; experiment: Murine HTS model with daily intradermal injections; type: in vivo
# Experimental: Murine HTS model. We used a murine HTS model as previously published by our group, Aarabi, et al., supra.
# Microscopy and immunohistochemistry. We incubated paraformaldehyde-fixed cells with primary antibody (pFAK-Y397 or FAK 1:200, BD Biosciences, San Jose, Calif.) followed by AlexaFluor488-conjugated secondary antibody (Molecular Probes/Invitrogen). We performed cytoskeletal staining with phalloidin-AF488 or Cy3-conjugated antibody against α-SMA (Sigma-Aldrich). We performed H&E, picrosirius red and trichrome staining (Sigma-Aldrich) on paraffin-embedded sections. We used primary antibodies against FAK, MCP-1, F4/80, Ki67, and α-SMA. Immunostaining was developed with VIP, NovaRed or diaminobenzidine (Vector Laboratories, Burlingame, Calif.), or secondary fluorescent antibodies AF488 or AF594. We performed apoptotic staining using the In Situ Cell Death Detection Kit (Roche). We purchased all antibodies from Abcam Inc. (Cambridge, Mass.) unless otherwise noted. We processed images for publication using Adobe Photoshop CS3 (Adobe Systems Incorporated, San Jose, Calif.) and two blinded investigators performed image quantification using ImageJ (NIH, Bethesda, Md.).
# Gene expression. We performed qPCR as previously published. We used Taqman Gene Expression Assays (Applied Biosystems, Foster City, Calif.) for in vitro qPCR.
# Immunoblotting. We performed immunoblotting as previously described. We used the following antibodies: FAK (BD Biosciences), p-FAK Y397, p-FAK S732, p-ERK T202/Y204 and ERK, p-Akt S473 and Akt (Cell Signaling Technology, Inc., Danvers, Mass.), p-p38 Y182 and p38, p-JNK T183/Y185 and JNK, MCP-1 and β-actin. We obtained all antibodies from Abcam Inc. unless otherwise noted.
# Intradermal injections. We administered intradermal injections (300 μL) of DMSO, 15 μM PF573228, or 150 μM PF573228 to unwounded murine skin or unloaded incisions. For HTS model experiments, we injected 15 μM PF573228 or recombinant mouse Mcp-1 (1 μg mL^−1, R&D Systems Inc.) daily between days 4 and 14 post-injury.
Molecule,formation of focal adhesions [1],spreading in human fibroblasts [1],cell motility [2],contraction/α-SMA expression [3],"scar formation in vivo ([4]; 15 μM PF573228 intradermal daily, days 4 to 14 post-injury, FIG. 4a)",MCP-1-associated pathways ([4]; HTS model scars),mechanical activation of ERK ([4]; HTS model scars),scar matrix density ([4]; post-injury day ten scars),"attenuation of epithelial proliferation ([4]; post-injury day ten scars, p<0.001) [%]","attenuation of epithelial thickness ([4]; post-injury day ten scars, p=0.004) [%]","attenuation of dermal proliferation ([4]; post-injury day ten scars, p=0.01) [%]","fibrotic phenotype in FAK-deficient wounds ([4]; FAK KO mice, intradermal Mcp-1 1 μg mL^−1 daily, FIG. 2c-f)"
CS(=O)(=O)c1cccc(CNc2nc(Nc3ccc4c(c3)CCC(=O)N4)ncc2C(F)(F)F)c1 [PF573228],effectively inhibited,impaired,decreased,decreased,significantly reduced,blocked,significantly decreased,attenuated,57,35,28,
"Mcp-1: recombinant mouse Mcp-1 (monocyte chemoattractant protein-1/CCL2), R&D Systems Inc.",,,,,,,,,,,,restored the fibrotic phenotype
